Measured values as given in PubChem BioAssay AID330 (DTP/NCI, 2004).
Where “and” joins values, the source holds several entries; their conditions need not be identical. Equal values may be shown once. Toxic doses and inconclusive results are not listed.

Test system: P388 leukemia ip, CD2F1 mice, survival T/C
Experiment: NCI In Vivo Anticancer Drug Screen. Data for tumor model P388 Leukemia (intraperitoneal) in CD2F1 (CDF1) mice
Conditions: endpoint: median survival time, higher = longer survival
Summary of the method: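 Mice carrying the transplanted tumor received test compound or vehicle. Survival was recorded in each group, and the value is the treated-group measurement divided by that of the vehicle-treated control group.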

[1] = dose: 25.0 mg/kg/injection, schedule: Q01DX005 (ip), vehicle: saline
[2] = dose: 50.0 mg/kg/injection, schedule: Q01DX005 (ip), vehicle: saline with Tween-80
[3] = dose: 50.0 mg/kg/injection, schedule: Q01DX005 (ip), vehicle: saline
[4] = dose: 100.0 mg/kg/injection, schedule: Q01DX005 (ip), vehicle: saline with Tween-80
[5] = dose: 200.0 mg/kg/injection, schedule: Q01DX005 (ip), vehicle: saline with Tween-80
[6] = dose: 60.0 mg/kg/injection, schedule: Q01DX005 (ip), vehicle: saline with Tween-80
[7] = dose: 120.0 mg/kg/injection, schedule: Q01DX005 (ip), vehicle: saline with Tween-80
[8] = dose: 240.0 mg/kg/injection, schedule: Q01DX005 (ip), vehicle: saline with Tween-80
[9] = dose: 100.0 mg/kg/injection, schedule: Q01DX005 (ip), vehicle: saline
[10] = dose: 12.5 mg/kg/injection, schedule: Q01DX009 (ip), vehicle: saline
[11] = dose: 50.0 mg/kg/injection, schedule: Q01DX005 (ip), vehicle: Klucel (hydroxypropylcellulose) (HPC)
[12] = dose: 100.0 mg/kg/injection, schedule: Q01DX005 (ip), vehicle: Klucel (hydroxypropylcellulose) (HPC)
[13] = dose: 50.0 mg/kg/injection, schedule: Q01DX009 (ip), vehicle: Klucel (hydroxypropylcellulose) (HPC)
[14] = dose: 100.0 mg/kg/injection, schedule: Q01DX009 (ip), vehicle: Klucel (hydroxypropylcellulose) (HPC)
[15] = dose: 200.0 mg/kg/injection, schedule: Q01DX009 (ip), vehicle: Klucel (hydroxypropylcellulose) (HPC)
[16] = dose: 200.0 mg/kg/injection, schedule: Q01DX005 (ip), vehicle: saline
[17] = dose: 100.0 mg/kg/injection, schedule: Q01DX009 (ip), vehicle: saline with Tween-80
[18] = dose: 100.0 mg/kg/injection, schedule: Q04DX002 (ip), vehicle: suspension in saline
[19] = dose: 200.0 mg/kg/injection, schedule: Q04DX002 (ip), vehicle: suspension in saline
[20] = dose: 100.0 mg/kg/injection, schedule: Q01DX001 (ip), vehicle: Klucel (hydroxypropylcellulose) (HPC)
[21] = dose: 400.0 mg/kg/injection, schedule: Q01DX001 (ip), vehicle: Klucel (hydroxypropylcellulose) (HPC)

CCN(CC)P(Cl)(C1=C(Cl)C(=O)C(C#N)=C(C#N)C1=O)(N(CC)CC)N(CC)CC
T/C (dose: 100.0 mg/kg/injection, schedule: Q01DX001 (ip), vehicle: saline with Tween-80): 89 % of control | T/C (dose: 400.0 mg/kg/injection, schedule: Q01DX001 (ip), vehicle: saline with Tween-80): 89 % of control

CCN(CC)c1cc2oc3cc(N)cc(=N)c-3nc2cc1C
T/C (dose: 12.5 mg/kg/injection, schedule: Q01DX005 (ip), vehicle: saline): 102 % of control | T/C [1]: 98 % of control | T/C [2]: 112 % of control | T/C [3]: 96 % of control | T/C [4]: 107 % of control | T/C [5]: 102 % of control

CCN(Cc1ccccc1)C(=O)Nc1c(Cl)cccc1Cl
T/C [6]: 92 % of control | T/C [7]: 95 % of control | T/C [8]: 86 % of control

CC[C@@H]1CN2CCc3c([nH]c4ccccc34)[C@@H]2C[C@@H]1/C(=C\OC)C(=O)OC
T/C [1]: 100 % of control and 96 % of control | T/C [3]: 98 % of control and 107 % of control and 108 % of control | T/C [9]: 109 % of control (2×) and 123 % of control

CCC(C)SSc1ccccc1C(=O)Nc1ccc(Cl)cc1 (stereo not given)
T/C [6]: 95 % of control | T/C [7]: 97 % of control | T/C [8]: 99 % of control

COC(=O)C(N)Cc1ccc(OCc2ccccc2)cc1 (stereo not given)
T/C [10]: 102 % of control | T/C (dose: 25.0 mg/kg/injection, schedule: Q01DX009 (ip), vehicle: saline): 102 % of control | T/C (dose: 25.0 mg/kg/injection, schedule: Q04DX002 (ip), vehicle: saline with Tween-80): 97 % of control | T/C (dose: 50.0 mg/kg/injection, schedule: Q01DX009 (ip), vehicle: saline): 100 % of control and 101 % of control | T/C (dose: 50.0 mg/kg/injection, schedule: Q04DX002 (ip), vehicle: saline with Tween-80): 108 % of control

O=C(OCC1OC(n2cc(C(F)(F)F)c(=O)[nH]c2=O)CC1OC(=O)c1ccc([N+](=O)[O-])cc1)c1ccc([N+](=O)[O-])cc1 (stereo not given)
T/C (dose: 12.0 mg/kg/injection, schedule: Q01DX005 (ip), vehicle: Klucel (hydroxypropylcellulose) (HPC)): 100 % of control | T/C (dose: 25.0 mg/kg/injection, schedule: Q01DX005 (ip), vehicle: Klucel (hydroxypropylcellulose) (HPC)): 108 % of control | T/C [11]: 105 % of control and 108 % of control | T/C [12]: 107 % of control

NC(CSC(c1ccccc1)(c1ccccc1)c1ccc(CBr)cc1)C(=O)O (stereo not given)
T/C (dose: 12.5 mg/kg/injection, schedule: Q01DX009 (ip), vehicle: Klucel (hydroxypropylcellulose) (HPC)): 86 % of control | T/C (dose: 12.5 mg/kg/injection, schedule: Q01DX009 (ip), vehicle: other): 120 % of control | T/C (dose: 25.0 mg/kg/injection, schedule: Q01DX009 (ip), vehicle: Klucel (hydroxypropylcellulose) (HPC)): 90 % of control | T/C [13]: 95 % of control | T/C [14]: 88 % of control | T/C (dose: 100.0 mg/kg/injection, schedule: Q01DX009 (ip), vehicle: other): 151 % of control and 159 % of control | T/C [15]: 90 % of control | T/C (dose: 200.0 mg/kg/injection, schedule: Q01DX009 (ip), vehicle: other): 162 % of control and 178 % of control | T/C (dose: 400.0 mg/kg/injection, schedule: Q01DX009 (ip), vehicle: Klucel (hydroxypropylcellulose) (HPC)): 94 % of control | T/C (dose: 400.0 mg/kg/injection, schedule: Q01DX009 (ip), vehicle: other): 182 % of control

CC1C(=O)CC2CCC1N2C(=O)O (stereo not given)
T/C [3]: 96 % of control | T/C [9]: 96 % of control | T/C [16]: 94 % of control

N#CC(C#N)=Cc1ccc2c(c1)CCC2
T/C (dose: 25.0 mg/kg/injection, schedule: Q01DX009 (ip), vehicle: saline with Tween-80): 90 % of control | T/C (dose: 50.0 mg/kg/injection, schedule: Q01DX009 (ip), vehicle: saline with Tween-80): 95 % of control | T/C [17]: 109 % of control

NC(CCC(=O)NC(CSCNC(=O)Nc1ccc(Cl)cc1)C(=O)NCC(=O)O)C(=O)O (stereo not given)
T/C (dose: 60.0 mg/kg/injection, schedule: Q01DX005 (ip), vehicle: saline): 97 % of control | T/C (dose: 120.0 mg/kg/injection, schedule: Q01DX005 (ip), vehicle: saline): 97 % of control

O=C1CCC(Cc2ccc(C(F)(F)F)cc2)C(=O)N1 (stereo not given)
T/C [6]: 102 % of control | T/C [7]: 95 % of control | T/C [8]: 98 % of control

O=[N+]([O-])c1ccccc1C(Nc1nncs1)Nc1nncs1
T/C [11]: 102 % of control | T/C [12]: 102 % of control and 121 % of control

Nc1cccc(SC2CC(=O)N(c3ccc(Cl)cc3C(=O)c3ccccc3)C2=O)c1 (stereo not given)
T/C [13]: 105 % of control | T/C [14]: 99 % of control | T/C [15]: 89 % of control

C(=C\C1N=C1c1ccccc1)/c1ccc2ccccc2c1 (stereo not given)
T/C (dose: 50.0 mg/kg/injection, schedule: Q04DX002 (ip), vehicle: suspension in saline): 99 % of control | T/C [18]: 97 % of control | T/C [19]: 99 % of control

CCn1c(Cl)c(/C=C2/N=C(c3ccccc3)OC2=O)c2ccccc21
T/C (dose: 25.0 mg/kg/injection, schedule: Q01DX001 (ip), vehicle: saline with Tween-80): 95 % of control | T/C (dose: 50.0 mg/kg/injection, schedule: Q01DX001 (ip), vehicle: saline with Tween-80): 86 % of control | T/C [20]: 92 % of control | T/C [21]: 86 % of control

CNC(C)=O
T/C [17]: 95 % of control | T/C (dose: 100.0 mg/kg/injection, schedule: Q04DX003 (ip), vehicle: saline): 90 % of control | T/C (dose: 200.0 mg/kg/injection, schedule: Q01DX009 (ip), vehicle: saline with Tween-80): 95 % of control | T/C (dose: 200.0 mg/kg/injection, schedule: Q04DX003 (ip), vehicle: saline): 95 % of control | T/C (dose: 400.0 mg/kg/injection, schedule: Q01DX009 (ip), vehicle: saline with Tween-80): 95 % of control | T/C (dose: 400.0 mg/kg/injection, schedule: Q04DX003 (ip), vehicle: saline): 100 % of control

O=S(=O)(c1ccccc1)C1CC=C(c2ccccc2)CNC1 (stereo not given)
T/C (dose: 50.0 mg/kg/injection, schedule: Q01DX001 (ip), vehicle: Klucel (hydroxypropylcellulose) (HPC)): 99 % of control | T/C [20]: 98 % of control | T/C (dose: 200.0 mg/kg/injection, schedule: Q01DX001 (ip), vehicle: Klucel (hydroxypropylcellulose) (HPC)): 98 % of control | T/C [21]: 100 % of control

Cn1c(=O)n2n(c1=O)C1(CCO)CCC2(CCO)CC1
T/C [2]: 99 % of control | T/C [4]: 103 % of control | T/C [5]: 100 % of control

COc1ccc(/C=C/C(C)=N/NC(N)=O)cc1
T/C [2]: 101 % of control | T/C [4]: 94 % of control | T/C [5]: 96 % of control

c1cc[c]([Sn]([NH]c2ncnc3[nH]cnc23)([NH]c2ncnc3[nH]cnc23)[c]2ccccc2)cc1
T/C [10]: 123 % of control | T/C [14]: 196 % of control

O=C(c1ccc(CSc2ccc(Cl)cc2)o1)N1CCOCC1
T/C [2]: 99 % of control | T/C [4]: 101 % of control | T/C [5]: 91 % of control

CN(C)C(CC(N)=O)C(=O)O (stereo not given)
T/C (dose: 50.0 mg/kg/injection, schedule: Q01DX009 (ip), vehicle: water): 101 % of control | T/C (dose: 100.0 mg/kg/injection, schedule: Q01DX009 (ip), vehicle: water): 102 % of control | T/C (dose: 200.0 mg/kg/injection, schedule: Q01DX009 (ip), vehicle: water): 97 % of control

CC1CCCC(C)N1NC(=O)C(C)(C)C (stereo not given)
T/C [3]: 99 % of control | T/C [9]: 115 % of control | T/C [16]: 101 % of control

CCOC(=O)/C(C(C)=O)=C1/c2c(ccc(OC)c2OC)C=C2c3cc4c(cc3CCN21)OCO4
T/C (dose: 0.63 mg/kg/injection, schedule: Q01DX009 (ip), vehicle: water): 105 % of control | T/C (dose: 1.25 mg/kg/injection, schedule: Q01DX009 (ip), vehicle: water): 108 % of control | T/C (dose: 2.5 mg/kg/injection, schedule: Q01DX009 (ip), vehicle: water): 101 % of control | T/C (dose: 5.0 mg/kg/injection, schedule: Q01DX009 (ip), vehicle: water): 124 % of control | T/C (dose: 10.0 mg/kg/injection, schedule: Q01DX009 (ip), vehicle: water): 101 % of control | T/C (dose: 20.0 mg/kg/injection, schedule: Q01DX009 (ip), vehicle: water): 107 % of control

CC(=Nc1c[nH]c(=O)[nH]c1=O)c1ccccc1
T/C [18]: 104 % of control | T/C [19]: 101 % of control | T/C (dose: 400.0 mg/kg/injection, schedule: Q04DX002 (ip), vehicle: suspension in saline): 94 % of control
